We go through two compounds from publication PMC8414367, “(E)-7-Ethylidene-lithocholic Acid (7-ELCA) Is a Potent Dual Farnesoid X Receptor (FXR) Antagonist and GPBAR1 Agonist Inhibiting FXR-Induced Gene Expression in Hepatocytes and Stimulating Glucagon-like Peptide-1 Secretion From Enteroendocrine Cells” (Frontiers in Pharmacology, 2021).

Values joined by “and” are separate entries in the source; they are usually repeats but may differ in a detail not shown here. Equal values may be shown once. Read-outs that look alike come from different tables or passages of the source.

In series [1] the target is T1, human FXR (Homo sapiens, UniProt Q96RI1).
T1 sequence (Q96RI1 1-486): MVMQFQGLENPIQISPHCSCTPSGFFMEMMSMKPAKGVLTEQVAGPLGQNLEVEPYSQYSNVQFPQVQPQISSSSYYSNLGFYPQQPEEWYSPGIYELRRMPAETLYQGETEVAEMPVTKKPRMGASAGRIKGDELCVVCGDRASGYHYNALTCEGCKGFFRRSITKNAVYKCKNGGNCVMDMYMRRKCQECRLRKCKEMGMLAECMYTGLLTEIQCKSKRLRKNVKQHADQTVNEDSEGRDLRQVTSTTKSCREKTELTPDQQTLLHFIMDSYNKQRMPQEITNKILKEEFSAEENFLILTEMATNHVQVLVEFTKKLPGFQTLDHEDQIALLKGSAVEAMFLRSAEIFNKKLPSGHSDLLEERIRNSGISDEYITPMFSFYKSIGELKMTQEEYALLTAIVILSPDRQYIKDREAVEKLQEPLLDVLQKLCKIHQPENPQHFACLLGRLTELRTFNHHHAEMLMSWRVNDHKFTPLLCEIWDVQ
T1 sequence (P19793 1-462 partner): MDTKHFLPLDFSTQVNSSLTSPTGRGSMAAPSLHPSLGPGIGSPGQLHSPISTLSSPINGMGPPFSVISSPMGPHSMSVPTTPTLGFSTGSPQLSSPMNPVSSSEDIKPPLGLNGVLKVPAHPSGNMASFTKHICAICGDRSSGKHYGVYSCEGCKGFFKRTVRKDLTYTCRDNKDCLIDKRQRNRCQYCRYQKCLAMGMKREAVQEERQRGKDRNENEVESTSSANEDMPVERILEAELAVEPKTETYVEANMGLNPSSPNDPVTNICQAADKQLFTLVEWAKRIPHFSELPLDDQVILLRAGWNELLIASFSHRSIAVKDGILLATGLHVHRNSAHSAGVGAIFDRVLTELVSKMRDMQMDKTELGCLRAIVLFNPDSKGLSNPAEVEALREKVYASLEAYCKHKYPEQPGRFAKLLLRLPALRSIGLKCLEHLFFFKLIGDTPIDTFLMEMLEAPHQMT
Put plainly: FXR luciferase reporter gene assay (FXRE-luc) in HepG2 cells, antagonistic mode. It is filed as cell-based. The settings on record: for IC50: HepG2, co-treatment with 1 µM OCA, 24 h, read-out: IC50, inhibition of OCA-induced FXR activation. For orientation: In a reporter assay the amount or activity of a reporter protein is the signal.

The target in series [2] is T2, FXR LBD (Homo sapiens, UniProt Q96RI1).
T2 construct: purchased ThermoFisher Scientific PV4833
T2 sequence (Q96RI1 262-486 limits assumed): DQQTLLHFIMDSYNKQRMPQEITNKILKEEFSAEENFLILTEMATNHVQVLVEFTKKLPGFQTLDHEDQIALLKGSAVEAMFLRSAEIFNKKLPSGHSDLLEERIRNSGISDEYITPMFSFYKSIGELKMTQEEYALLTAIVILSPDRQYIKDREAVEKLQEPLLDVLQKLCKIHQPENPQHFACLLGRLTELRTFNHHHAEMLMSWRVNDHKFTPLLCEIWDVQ
Description: LanthaScreen TR-FRET FXR Coactivator Assay, antagonistic mode (SRC-2 peptide recruitment). It is filed as biochemical. As for the experimental part: The LanthaScreen® TR-FRET FXR Coactivator Assay (goat, PV4833, ThermoFisher Scientific) was performed to assess the affinity of tested compounds to FXR ligand-binding domain (LBD) in agonistic and antagonistic models. In the antagonistic assays, the FXR LBD was co-incubated with OCA or GW4064, together with tested ligands in increasing concentrations. The assay was performed according to the manufacturer’s protocols. […] Data have been obtained from three independent experiments performed in 4 replicates.
In general terms: TR-FRET usually uses a lanthanide donor and a delayed reading to cut background.

Series [3] concerns BSEP and SHP mRNA (FXR target genes), primary human hepatocytes. Put plainly: RT-qPCR of FXR target genes in primary human hepatocytes. It is filed as cell-based. The following applies: for BSEP mRNA level upregulated by OCA / SHP mRNA level upregulated by OCA: 40 µM with OCA 1 µM, 24 h; for BSEP and SHP mRNA expression, compound per se: without OCA. An excerpt: Total RNA from HepaRG cells or primary human hepatocyte samples was isolated by the phenol/chloroform method with TRI-reagent (Merck) according to the manufacturer's protocol. The cDNA was synthesized using a Tetro cDNA Synthesis Kit (Bioline, now Meridian Bioscience, Memphis, United States), and RT-qPCR was run in the Quant Studio 6 instrument using the Fast Advanced Master Mix (ThermoFisher Scientific, Waltham, United States) according to the MIQE protocols. All the probes were obtained from ThermoFisher Scientific: ABCB11 (BSEP, Hs00184824_m1), NR0B2 (SHP, Hs00222677_m1).
FIGURE 6 Regulation of FXR downstream genes by 7-ELCA and 7β-propyl-CDCA in the presence or absence of 1 µM OCA as the potent FXR agonist. Real-time qPCR analysis of mRNA expression of (A,C) BSEP and (B,D) SHP genes was performed in terminally differentiated HepaRG hepatic cells (A,B), and in primary human hepatocytes (PHH) from one donor treated for 24 h (C,D). (E) SHP protein expression in HepaRG cells after 48 h treatment with OCA alone or in combination with 7-ELCA and 7β-propyl-CDCA. Data were normalized to B2M mRNA or GAPDH protein and are expressed relative to those of control (vehicle-treated) cells.
In general terms: In qPCR the cycle at which signal appears reflects the starting amount.

A short description of series [4]: MTS viability assay. It is filed as cell-based, human. The settings on record: human, vehicle = 100%.
The subject of series [5] is HepG2. Put plainly: MTS viability assay. It counts as cell-based, human. The following applies: Homo sapiens; HepG2, 24 h, MTS; read-out: IC50 (µM), cell viability.
The test system of series [6] is HepaRG. Put plainly: MTS viability assay. It is filed as cell-based, human. The settings on record: Homo sapiens, 24 h, MTS, read-out: IC50 (µM), cell viability.
For series [7], the system named is Huh7. Put plainly: MTS viability assay. The settings on record: Homo sapiens, Huh-7; Huh7, 24 h, MTS; read-out: IC50 (µM), cell viability. It is filed as cell-based, human.
The test system of series [8] is AML12. Description: MTS viability assay. The following applies: Mus musculus; AML12, 24 h, MTS; read-out: IC50 (µM), cell viability. It counts as cell-based, murine.
Setting [9] is: HepG2, read-out: relative response (%) to the model FXR ligand activation (set to be 100%), GW4064 1 µM.
The mark [10] stands for this setting: GW4064 1 µM, read-out: IC50, inhibition of GW4064-promoted interaction of SRC-2 and FXR.
The mark [11] stands for this setting: OCA 1 µM, read-out: IC50, inhibition of OCA-induced recruitment of SRC-2 to FXR LBD.

In the case of `C/C=C1\C[C@@H]2C[C@H](O)CC[C@]2(C)[C@H]2CC[C@]3(C)[C@@H]([C@H](C)CCC(=O)O)CC[C@H]3[C@H]12` [2a, (E)-3α-Hydroxy-7-ethylidene-5β-cholan-24-oic acid], the melting point was in the range of 67 to 72 °C. Besides, the IC50 in [1] is 15 µM and 15.1 µM. Besides, the inhibition at 100 µM in series [1] (HepG2, read-out: inhibition of FXR activation) was roughly 95%. For the same compound, the remaining activity at 40 µM in series [1] (HepG2, read-out: relative response (%) to the model FXR ligand activation (set to be 100%), CDCA 20 µM) worked out at 67.3 ± 0.6%. Moreover, in [1] (setting [9]), the remaining activity at 10 µM amounted to 82.9 ± 2.3% and the remaining activity at 40 µM was found to be 51.1 ± 2.9%. Besides, the “capacity to antagonize OCA-stimulated FXR activation (in words)” value in [1] (with 1 µM OCA, Figure 3B) is given as “most potent FXR antagonist”. In series [2] (setting [10]), the IC50 amounted to 6.6 ± 2.9 µM. For the same compound, the IC50 in series [2] (setting [11]) worked out at 18 ± 2.7 µM. In series [3], the “BSEP mRNA level upregulated by OCA” value is listed as “reduced”; the “SHP mRNA level upregulated by OCA” value is given as “reduced”; the “BSEP and SHP mRNA expression, compound per se” value was “did not have an impact”. For the same compound, the viability at 24 h, 10 µM in series [4] (HepG2 cells, HepG2, 24 h) is 99.7 ± 1.2%. Also, the viability at 24 h, 10 µM in series [4] (HepaRG cells) was 119 ± 6%. Also, the viability at 24 h, 10 µM in series [4] (Huh7 cells, Huh7, 24 h) came out at 111 ± 9.5%. Besides, the IC50 in series [5] was greater than 200 µM. In [6], the IC50 was greater than 200 µM. Also, in series [7], the 50% inhibitory concentration (IC50) was greater than 200 µM. The IC50 in series [8] is greater than 200 µM.

`CCC[C@@]1(O)C[C@@H]2C[C@H](O)CC[C@]2(C)C2CC[C@@]3(C)C(CC[C@@H]3[C@H](C)CCC(=O)O)C21` (stereo partly drawn) [2f, 3α,7α-Dihydroxy-7β-propyl-5β-cholan-24-oic acid] had a melting point of 100 to 105 °C. Moreover, in series [1], the IC50 is 20.5 ± 1 µM. For the same compound, the inhibition at 100 µM in series [1] (HepG2, at 100 µM, with 1 µM OCA, read-out: inhibition of FXR activation) was roughly 85%. Moreover, the remaining activity at 10 µM in [1] (HepG2, tested compound 10 µM, GW4064 1 µM, read-out: relative response (%) to the model FXR ligand activation (set to be 100%), GW4064 1 µM) came to 85.7 ± 11.2%. The remaining activity at 40 µM in series [1] (HepG2, tested compound 40 µM, CDCA 20 µM, * = significant effect on cellular viability, read-out: relative response (%) to the model FXR ligand activation (set to be 100%), CDCA 20 µM) was found to be 96.4 ± 0.7%. For the same compound, in series [1] (HepG2, tested compound 40 µM, GW4064 1 µM, * = significant effect on cellular viability, read-out: relative response (%) to the model FXR ligand activation (set to be 100%), GW4064 1 µM), the remaining activity at 40 µM was determined as 61.7 ± 10.8%. Further, the IC50 in [2] (setting [10]) was found to be 13.8 ± 2.5 µM. Further, the IC50 in series [2] (setting [11]) was 26.5 ± 2 µM. Further, in [3], the “BSEP mRNA level upregulated by OCA” value is “reduced”; the “SHP mRNA level upregulated by OCA” value was “reduced”; the “BSEP and SHP mRNA expression, compound per se” value is “did not have an impact”. The viability at 24 h, 10 µM in [4] (HepG2 cells, HepG2, 24 h) turned out to be 94.9 ± 11.7%. Also, the viability at 24 h, 10 µM in series [4] (HepaRG cells) was found to be 89.4 ± 2.5%. In addition, the viability at 24 h, 10 µM in series [4] (Huh7 cells, Huh7, 24 h) came out at 117 ± 2.3%. For the same compound, the IC50 in series [5] turned out to be 107 ± 1.1 µM. Further, the IC50 in series [6] stood at 97.3 µM. In addition, the IC50 in series [7] is greater than 100 µM. In addition, the IC50 in [8] worked out at 90.8 µM.

Broadly, the IC50 is the concentration needed to halve the response being measured. For orientation: inhibition means the change of the read-out against control, counted positive when it falls. As a reminder, the viability is a read-out of living cells in per cent, often relative to untreated cells. One may read the melting point as the temperature of the solid-liquid transition.
